The source of these data is ChEMBL document CHEMBL1146835, “Aspermytin A: a new neurotrophic polyketide isolated from a marine-derived fungus of the genus Aspergillus” (2004).

The assay has as its system PC-12. Kind of assay: Neurotrophic effect on rat pheochromocytoma (PC-12) cells was expressed as percent cells with neurites after 2 days treatment with 50 uM of compound. It is filed as functional.

`C[C@H]1CCC2[C@@H](C=C[C@@](C)(O)[C@]2(C)C(=O)CCO)C1` (stereo partly specified) had a Cells greater than 50%.
